Measured values published in patent US20060111395A1, “Aryl-and heteroaryl-substituted tetrahydroisoquinolines and use thereof to block reuptake of norepinephrine, dopamine and serotonin” (AMR Technology, Inc., priority 2004, published 2006).

How the values were obtained:
[1] = tested on: dopamine transporter protein over the norepinephrine transporter protein; conditions: selectivity for DAT over NET; cited from earlier work
[2] = cited from earlier work

For `CN1Cc2cc(-c3ccoc3)ccc2C(c2ccccc2)C1` (stereo not drawn), which melting point is on record?
Its melting point is 188 to 189 °C (dec.).

Which “DAT/NET Ki ratio” value [1] does the source give for `COC(=O)C(c1ccccc1)C1CCCCN1` (stereo not drawn) [Methylphenidate] here?
Its value is 0.1.

Which “side effect of long term administration” value [2] does the source give for `CN1Cc2c(N)cccc2C(c2ccccc2)C1` (stereo not drawn) [Nomofensine®] here?
The value was “fatal immune hemolytic anemia”.
